Experimental data taken from patent US20230151065A1, “MULTI-DISULFIDE-BOND LONG-CHAIN PEPTIDE WITH NEURO[…], PHARMACEUTICAL COMPOSITION AND APPLICATION” (priority 2018, published 2023).
Where no end group is shown, it is not given here.

Key:
[1] = tested on: primary fetal rat hippocampal neurons; assay: Growth of hippocampal neurons, live cell station; assay type: cell-based; conditions: ABPPk2 100 ng/ml, observed for 48 h
Experimental: (1) Primary culture of fetal rat hippocampal neurons: after a rat pregnant for 17 days was anesthetized, a fetal rat was taken out under sterile conditions; the brain of the fetal rat was taken out on ice; the hippocampus was carefully taken out under a dissecting microscope; and the blood vessel membranes were removed. 0.125% trypsin/EDTA was digested at 37° C. for 10 min, and the digestion was stopped by adding the DMEM complete medium containing 10% FBS. Cell debris were removed through centrifugal at 1000 rpm for 5 min; the DMEM complete medium was added to resuspend the cells; the cells were gently blown until a single cell suspension was formed; and the cells were inoculated at an appropriate density on a culture plate (dish) pre-coated with polylysine (PLL) and cultured at 37° C., 5% CO2 incubator. After 4 h, the cells were adhered to the wall; the DMEM complete medium was discarded and replaced with neurobasal medium containing different concentrations of ABPPk2 (the concentrations of ABPPk2 were 4 ng/ml, 20 ng/ml and 100 ng/ml); the neurobasal medium containing 10 ng/ml BDNF was used as the positive control group, and neurobasal was used as the negative control group.
(3) Neuron growth was observed by a live cell station: the hippocampal neuron single cell suspension obtained in (1) was inoculated on a culture plate pre-coated with PLL at a cell density of 5×10^5. […]

[2] = tested on: primary cultured hippocampal neurons damaged by NMDA; assay: NMDA damage of primary cultured hippocampal neurons, MTT viability; assay type: cell-based, SD (Sprague-Dawley) rat; conditions: for hippocampal neuron activity after NMDA damage (MTT): MK801 10 μM
From the text: (1) Establishment of NMDA damage model. Primary culture of hippocampal neurons: SD (Sprague-Dawley) female rats pregnant for 18-19 days were anesthetized with a compound anaesthetic agent; fetal rat brains were taken under aseptic conditions and placed in HBSS solution (8.4 g/L of NaCl, 0.224 g/L of KCl, 2.38 g/L of HEPES, 500,000 units of penicillin sodium and 500,000 units of kanamycin sulfate; the pH was adjusted to 7.1-7.2 with 1M NaOH; then the osmotic pressure was adjusted to about 290±10 m Osm with ultrapure water; and after filtration, the solution was stored at 4° C.); the meninges were removed under a stereoscopic dissecting microscope; the bilateral hippocampus was removed and digested in 0.125% pancreatic protease at 37° C. for 10 min; and complete media (90% DMEM medium+10% FBS) (FBS: fetal bovine serum) was used to terminate the digestion; the bilateral hippocampus was washed for 3 times with the complete media to make a single cell suspension; the cell density was adjusted to about 7-8×10^5/ml; and the bilateral hippocampus was inoculated to a 6-well/96-well cell culture plate/60 mm culture dish/slide coated with L-polylysine. After 24 hours, the media were changed to serum-free neurobasal media (GIBCO) which were then placed in a 5% CO2, 37° C. incubator for culture; and half of the solution was changed every three days.
(2) NMDA damage treatment of hippocampal neurons: (1) The original media were sucked out and the cells were washed with magnesium-free extracellular fluid for three times, each for 5 minutes. (2) 10 mM NMDA (N-methyl-D-aspartic acid) and 10 mM Gly (glycine) were prepared with magnesium-free extracellular fluid, and NMDA was prepared to different concentrations with the magnesium-free extracellular fluid, wherein the final concentration of Gly was 10 μM. […] After damage, the cells were washed for three times with DMEM medium, each for 5 minutes. (3) The original culture media were re-added to continue for culturing for 24 hours.
(3) Detection of viability of hippocampal neurons after NMDA damage: (1) The hippocampal neurons were inoculated into a 96-well culture plate at 8×10^5 cells/ml, 0.1 ml per well, and cultured in a 5% CO2 incubator for 7-8 days. (2) After NMDA damage treatment and continuous culture for 24 hours, the culture solution was sucked off. (3) 100 μl of DMEM culture medium containing MTT (3-(4,5-dimethylthiazole-2)-2,5-diphenyltetrazolium bromide, 0.5 mg/ml) was added to each well, and the culture plate was put into 37° C., 5% CO2 incubator for culturing for 4 h. (4) 100 μl of 20% SDS was added to each well (20 g of sodium lauryl sulfate was dissolved in 50 ml of ddH2O+50 ml of N,N dimethylformamide) at 37° C. for 20 h. (5) The solution was shaken on a horizontal shaker for 5 min. (6) The optical density (OD) was measured at 570 nm (reference wavelength of 490 nm) on a microplate reader.
(6) Effect of ABPPk2 on decrease of hippocampal neuron activity caused by NMDA. Effect of different concentrations of ABPPk2 on hippocampal neuron damage caused by NMDA (100 μM, 30 min). The experiment was divided into 9 experimental groups: a normal group, NMDA (100 μM, 30 min) group (as a control group), ABPPk2 (0.01 μg/ml) group, ABPPk2 (0.1 μg/ml) group, ABPPk2 (0.3 μg/ml) group, ABPPk2 (1 μg/ml) group, ABPPk2 (3 μg/ml) group, ABPPk2 (10 μg/ml) group and MK801 (dizocilpine, 10 μM) group (as a positive control group). Three administration ways were adopted for ABPPk2: (1) ABPPk2 was administered 12 hours before and during the NMDA damage. (2) ABPPk2 was administered during NMDA damage. (3) ABPPk2 was administered during 24 hours of culture after NMDA damage.

Substance: Cys-Leu-Glu-Ser-Gly-Thr-Ser-Cys-Ile-Pro-Gly-Ala-Gln-His-Asn-Cys-Cys-Ser-Gly-Val-Cys-Val-Pro-Ile-Val-Thr-Ile-Phe-Tyr-Gly-Val-Cys-Tyr (CLESGTSCIPGAQHNCCSGVCVPIVTIFYGVCY; disulfide (positions not given here); not fully specified (bridges); also: three disulfide bonds, pairing not given here) [ABPPk2, 33 amino acid polypeptide isolated from the extract of Achyranthes bidentata Blume, three pairs of disulfide bonds]
- growth of hippocampal neurons (live cell station) [1]: can promote the growth of the hippocampal neurons and the extension of neurites
- hippocampal neuron activity after NMDA damage (MTT) ([2]; given 12 h before and during NMDA (100 μM, 0.5 h), ABPPk2 0.1, 0.3 and 1 μg/ml groups): can effectively reduce the decrease of hippocampal neuron activity caused by NMDA damage
- hippocampal neuron activity after NMDA damage (MTT) ([2]; given during 24 h culture after NMDA damage (100 μM, 0.5 h), ABPPk2 0.1-10 μg/ml): can effectively reduce the decrease of hippocampal neuron activity caused by NMDA damage
- hippocampal neuron activity after NMDA damage (MTT) ([2]; given during NMDA damage (100 μM, 0.5 h), ABPPk2 1 and 10 μg/ml groups): can effectively reduce the decrease of hippocampal neuron activity caused by NMDA damage
- protective effect on NMDA damage of primary hippocampal neurons ([2]; overall statement, experimental solution of embodiment 6, concentration and administration way not stated): has a protective effect on the damage of primary cultured hippocampal neurons induced by NMDA
